Measured values: patent US20220072324A1, “METHOD AND SYSTEM FOR APPLYING PULSED ELECTRIC FIELDS WITH HIGH […] MAGNETIC CORES” (Board of Supervisors of Louisiana State University and …, priority 2018, published 2022)

Test system: mouse breast cancer 4T1 cells xenografts
Assay: In vivo validation of Targeted Osmotic Lysis (TOL) in a breast cancer mouse model
Design: species or system BALBc mice
Settings: TOL: 7 mg/kg digoxin s.c. five times at 1 hr intervals plus pulsed magnetic fields from toroid device for 30 min, day 0 and day 1; versus control groups; FIG. 9
Protocol: FIG. 9 depicts in vivo validation of the therapeutic efficacy of pulsed magnetic fields inducing osmotic lysis in a breast cancer mouse model. Four groups of female, immune competent BALBc mice (n=8) with xenografts (0.7-1.2 cm diameter lower back) were established after injection of 500K highly malignant mouse breast cancer 4T1 cells in 7 mg/kg digoxin or saline (s.c. back of neck) five times at 1 hr intervals. This protocol establishes steady-state pharmacokinetics in even poorly vascularized tissues. The mice were exposed to the pulsed magnetic fields generated by a toroid device, for 30 min starting 15 min after the last injection. This treatment was administered on day 0 (first day of treatment), and on day 1. Mice were monitored for tumor growth and were sacrificed when they met the NIH criteria for humane endpoint euthanasia.

Question: How did the “time until mice reached humane endpoint euthanasia criteria” value turn out when `C[C@H]1O[C@@H](O[C@H]2[C@@H](O)C[C@H](O[C@H]3[C@@H](O)C[C@H](O[C@H]4CC[C@@]5(C)[C@H](CC[C@@H]6[C@@H]5C[C@@H](O)[C@]5(C)[C@@H](C7=CC(=O)OC7)CC[C@]65O)C4)O[C@@H]3C)O[C@@H]2C)C[C@H](O)[C@@H]1O` [digoxin] was run?
Answer: significantly longer than mice in the control groups
